The source made the active and inactive calls. The calls are words filed in the database; no cut-off is given here.
Legend:
[1] = Chemical stability of compound in PBS buffer at pH 7.4 assessed as parent compound remaining measured after 60 mins by UHPLC analysis; type: physicochemical; details: read-out: Stability
[2] = Photophysical property of the compound assessed as fluorescence quantum yield by UV-Visible spectrophotometric analysis; type: physicochemical
HeLa [3] = test: Cytotoxicity against human HeLa cells at 25 uM by CCK-8 assay; type: functional, cell-based
HeLa [4] = test: Cytotoxicity against human HeLa cells assessed as reduction in cell survival upto 50 uM by CCK-8 assay; type: functional; details: up to 50 µM
HeLa [5] = test: Cytotoxicity against human HeLa cells assessed as reduction in cell survival upto 50 uM in presence of light irradiation by CCK-8 assay; type: functional; details: up to 50 µM
HeLa [6] = test: Cytotoxicity against human HeLa cells assessed as TBHP release by measuring fluorescence intensity at 10 uM incubated for 5 mins in presence of light irradiation at 375 to 455 nm by confocal fluorescence microscopic analysis; type: functional, cell-based
HeLa [7] = test: Cytotoxicity against human HeLa cells assessed as TBHP release by measuring fluorescence intensity at 50 uM incubated for 5 mins in presence of light irradiation at 375 nm by confocal fluorescence microscopic analysis; type: functional, cell-based

Compound	remaining at 1 h [1] [%]	Activity [2]	Activity (HeLa [3])	Activity (HeLa [4]) [%]	Activity (HeLa [5]) [%]	Activity (HeLa [6])	Activity (HeLa [7])
CC(C)(C)OOC(=O)OCc1cc(=O)oc2c3c(c(Br)cc12)NCCC3	50	0.082	Active	63	46	Active	
CC(C)(C)OOC(=O)OCc1cc(=O)oc2c3c(c(Br)cc12)NCC3	68	0.14					
CC(C)(C)OOC(=O)OCc1cc(=O)oc2cc(O)c(Br)cc12	45	0.13					Active
CC(=O)OC(=O)OCc1cc(=O)oc2cc(O)c(Br)cc12		0.04					

Source: ChEMBL document CHEMBL6078620, “Design and synthesis of visible light-activatable photocaged peroxides for optical control of ROS-mediated cellular signaling” (Bioorg Med Chem, 2024)
